Data taken from paper PMC10967822, “Antimicrobial Indole-3-Carboxamido-Polyamine Conjugates Target Bacterial Membranes and Are Antibiotic Potentiators” (Biomolecules, 2024).
Values after ≈ are worked out from the molar mass of the structure shown. Marks after values point to notes of the source that are not given here.

Assays:
[1] = test system: S. aureus ATCC 25923; test: MIC, broth dilution, S. aureus; assay type: cell-based, Staphylococcus aureus; conditions: Staphylococcus aureus, ATCC25923; S. aureus ATCC 25923, 18 h; read-out: MIC Sa
[2] = test system: MRSA ATCC 43300; test: MIC, broth microdilution (CO-ADD), MRSA; assay type: cell-based, methicillin-resistant S. aureus; conditions: Staphylococcus aureus; MRSA ATCC 43300; top dose 32 µg/mL; read-out: MIC MRSA
[3] = test system: P. aeruginosa ATCC 27853; test: MIC, broth dilution, P. aeruginosa; assay type: cell-based, Pseudomonas aeruginosa; conditions: Pseudomonas aeruginosa, ATCC27853; P. aeruginosa ATCC 27853, 18 h; read-out: MIC Pa
[4] = test system: E. coli ATCC 25922; test: MIC, broth dilution, E. coli; assay type: cell-based, Escherichia coli; conditions: Escherichia coli, ATCC25922; E. coli ATCC 25922, 18 h
[5] = test system: A. baumannii ATCC 19606; test: MIC, broth microdilution (CO-ADD), A. baumannii; assay type: cell-based, Acinetobacter baumannii; conditions: Acinetobacter baumannii, ATCC19606, top dose 32 µg/mL
[6] = test system: C. albicans ATCC 90028; test: Antifungal MIC (CO-ADD), C. albicans; assay type: cell-based; conditions: Candida albicans, ATCC90028, top dose 32 µg/mL
Method: (§1) For the antifungal assay, fungi strains were cultured for 3 days on YPD agar at 30 °C. A yeast suspension of 1 × 10^6 to 5 × 10^6 CFU/mL was prepared from five colonies. These stock suspensions were diluted with a yeast nitrogen base (YNB) (Becton Dickinson, 233520, New South Wales, Australia) broth to a final concentration of 2.5 × 10^3 CFU/mL. […] The plates were covered and incubated at 35 °C for 36 h without shaking. C. albicans MICs were determined by measuring the absorbance at OD530. For C. neoformans, resazurin was added at a 0.006% final concentration to each well and incubated for a further 3 h before the MICs were determined by measuring the absorbance at OD570–600. […] Fluconazole was used as a positive fungal inhibitor standard for C. albicans and C. neoformans. […] The quality control (QC) of the assays was determined by the antimicrobial controls and the Z′-factor (using positive and negative controls).

[7] = test system: P. aeruginosa ATCC 27853; test: Doxycycline potentiation against P. aeruginosa; assay type: cell-based, Pseudomonas aeruginosa; conditions: doxycycline at 2 µg/mL (4.5 µM); for Dox/Pa fold-change (intrinsic MIC / combination MIC): P. aeruginosa ATCC 27853; for Dox/Pa: concentration required to restore doxycycline activity (combination MIC): P. aeruginosa ATCC 27853, mean n = 3
Excerpt: (§2) These measurements were independently repeated in triplicate.

[8] = test system: E. coli ATCC 25922; test: Erythromycin potentiation against E. coli; assay type: cell-based, Escherichia coli; conditions: erythromycin at 2 µg/mL (2.7 µM); for Erythro/Ec fold-change (intrinsic MIC / combination MIC): E. coli; for Erythro/Ec: concentration required to restore erythromycin activity (combination MIC): mean n = 3
Excerpt: as §2

[9] = Cytotoxicity assay (resazurin); assay type: cell-based; conditions: human, HEK293 cells, mean n = 2
[10] = test system: human red blood cells; test: Hemolytic assay; assay type: cell-based; conditions: 10% hemolytic activity, mean n = 2
Method: Human whole blood was washed three times with three volumes of 0.9% NaCl and then resuspended in the same solution to a concentration of 0.5 × 10^8 cells/mL, as determined by the manual cell count in a Neubauer hemocytometer. The washed cells were then added to the 384-well compound-containing plates for a final volume of 50 μL. After a 10 min shake on a plate shaker, the plates were then incubated for 1 h at 37 °C. After incubation, the plates were centrifuged at 1000× g for 10 min to pellet cells and debris; 25 μL of the supernatant was then transferred to a polystyrene 384-well assay plate. Hemolysis was determined by measuring the supernatant absorbance at […] (OD405). The absorbance was measured using a Tecan M1000 Pro monochromator plate reader. HC10 and HC50 (concentrations at 10% and 50% hemolysis, respectively) were calculated by a curve fitting the inhibition values vs. log (concentration) using a sigmoidal dose–response function with variable fitting values for the top, bottom, and slope.

[11] = test system: K. pneumoniae ATCC 700603; test: MIC, broth microdilution (CO-ADD), K. pneumoniae; conditions: top dose 32 µg/mL
[12] = test system: C. neoformans ATCC 208821; test: Antifungal MIC (CO-ADD), C. neoformans; assay type: cell-based; conditions: Cryptococcus neoformans, ATCC208821, top dose 32 µg/mL
Method: as §1

| SMILES | MIC [1] [µM] | MIC [2] [µM] | MIC [3] [µM] | MIC [4] [µM] | MIC [5] [µM] | MIC [6] [µM] | Dox/Pa fold-change (intrinsic MIC / combination MIC) [7] [fold] | Dox/Pa: concentration required to restore doxycycline activity (combination MIC) [7] [µM] | Erythro/Ec fold-change (intrinsic MIC / combination MIC) [8] [fold] | Erythro/Ec: concentration required to restore erythromycin activity (combination MIC) [8] [µM] | IC50 at 20 h [9] [µM] | Hemolysis HC10 [10] [µM] | MIC Kp [11] | MIC [12] [µM] |
| --- | --- | --- | --- | --- | --- | --- | --- | --- | --- | --- | --- | --- | --- | --- |
| O=C(N[C@H](CO)[C@H](O)c1ccc([N+](=O)[O-])cc1)C(Cl)Cl [Chloramphenicol, reference compound] | 1.5 to 3 (≈ 0.485 to 0.969 µg/mL) |  |  |  |  |  |  |  |  |  |  |  |  |  |
| O=C(NCCCNCCCCNCCCNC(=O)c1c[nH]c2ccccc12)c1c[nH]c2ccccc12 [Compound 12a] | 69.8 (≈ 34.1 µg/mL) | 22.3 (≈ 10.9 µg/mL) | > 279 | 139 (≈ 67.9 µg/mL) | > 45 | > 45 | > 8 | 34.9 | 4 | 34.9 | > 45 | >45 | >45 ^j µM |  |
| O=C(NCCCNCCCCCCCCNCCCNC(=O)c1c[nH]c2ccccc12)c1c[nH]c2ccccc12.O=C(O)C(F)(F)F.O=C(O)C(F)(F)F [Compound 12d] | 64.7 | ≤ 0.32 | > 259 | 32.4 | > 41 | > 41 | > 8 | 32.3 |  |  | > 41 | >41 | >41 µM | ≤ 0.32 |
| COc1ccc2[nH]cc(C(=O)NCCCNCCCCNCCCNC(=O)c3c[nH]c4ccc(OC)cc34)c2c1 [Compound 14a] | 257 (≈ 141 µg/mL) | 10.3 (≈ 5.65 µg/mL) | > 257 | 257 (≈ 141 µg/mL) | > 41 | > 41 | > 4 | 64.4 | 1 | 257 | > 41 | >41 | >41 µM |  |
| COc1ccc2[nH]cc(C(=O)NCCCNCCCCCCCNCCCNC(=O)c3c[nH]c4ccc(OC)cc34)c2c1.O=C(O)C(F)(F)F.O=C(O)C(F)(F)F [Compound 14c] | 122 | > 39 | > 244 | > 244 | > 39 | > 39 | > 4 | 61.1 | > 1 | 244 | > 39 | >39 | >39 µM |  |
| O=C(NCCCNCCCCNCCCNC(=O)c1c[nH]c2c(F)cccc12)c1c[nH]c2c(F)cccc12 [Compound 16a] | > 266 | > 43 | 266 (≈ 140 µg/mL) | > 266 | > 43 | > 43 | 1 | 266 | 1 | > 266 | > 43 | >43 | >43 µM |  |
| O=C(NCCCNCCCCCCNCCCNC(=O)c1c[nH]c2c(F)cccc12)c1c[nH]c2c(F)cccc12 [Compound 16b] | 256 (≈ 141 µg/mL) | > 41 | > 256 | 256 (≈ 141 µg/mL) | > 41 | > 41 | > 4 | 64.0 | 2 | 128 | > 41 | >41 | >41 µM |  |
| COc1cccc2c(C(=O)NCCCNCCCCNCCCNC(=O)c3c[nH]c4c(OC)cccc34)c[nH]c12 [Compound 17a] | 129 (≈ 70.8 µg/mL) | 20.6 (≈ 11.3 µg/mL) | > 257 | > 257 | > 41 | > 41 | > 2 | 129 | 1 | > 257 | > 41 | >41 | >41 µM |  |
